Measurements from ChEMBL document CHEMBL1201862, “PubChem BioAssay data set” (2004).
Active and inactive are the calls of the source.

Experiments:
HEK293 [1] = assay: cells; type: functional, cell-based; details: Homo sapiens
[2] = blockers of CRF-binding protein–CRF-R2 complex – cell-based, uHTS hits, 384-well, dose response (AID 651639); type: functional, Homo sapiens; details: read-out: IC50_Mean
HEK293 [3] = assay: inhibition of NOD1-driven NF-kB reporter – cell-based, luminescence, uHTS, primary screen (AID 1578); type: functional; details: Homo sapiens
HEK293 [4] = assay: cells; type: functional, cell-based; details: Homo sapiens; remark: listed apart in the source
HEK293 [5] = assay: cells; details: Homo sapiens
[6] = target: T1, Corticotropin-releasing factor receptor 2/Corticotropin-releasing factor-binding protein (Homo sapiens, UniProt P24387+Q13324); assay: activators of CRF receptor 2 with binding protein – uHTS hits, confirmation (AID 602473); type: functional; details: read-out: EC50_Mean
T1 sequence (Q13324 whole entry): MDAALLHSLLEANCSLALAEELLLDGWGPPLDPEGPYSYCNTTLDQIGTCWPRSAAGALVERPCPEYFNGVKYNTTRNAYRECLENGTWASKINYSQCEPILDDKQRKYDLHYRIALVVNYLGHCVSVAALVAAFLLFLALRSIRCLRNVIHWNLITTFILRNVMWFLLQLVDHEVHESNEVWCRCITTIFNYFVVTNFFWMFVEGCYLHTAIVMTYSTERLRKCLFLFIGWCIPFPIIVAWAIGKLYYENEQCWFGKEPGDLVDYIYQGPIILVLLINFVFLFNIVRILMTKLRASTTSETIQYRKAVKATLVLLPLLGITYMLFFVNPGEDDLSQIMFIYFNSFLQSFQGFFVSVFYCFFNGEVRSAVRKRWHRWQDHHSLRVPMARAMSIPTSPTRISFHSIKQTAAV
T1 sequence (P24387 whole entry): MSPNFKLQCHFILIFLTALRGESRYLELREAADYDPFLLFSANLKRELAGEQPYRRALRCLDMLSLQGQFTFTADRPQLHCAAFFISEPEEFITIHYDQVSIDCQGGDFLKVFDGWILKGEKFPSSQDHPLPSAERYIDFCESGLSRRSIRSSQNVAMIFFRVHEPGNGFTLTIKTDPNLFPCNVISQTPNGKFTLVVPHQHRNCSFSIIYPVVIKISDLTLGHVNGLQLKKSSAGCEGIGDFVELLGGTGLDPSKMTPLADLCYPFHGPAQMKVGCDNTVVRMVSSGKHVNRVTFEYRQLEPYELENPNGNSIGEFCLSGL

[7] = target: Nucleotide-binding oligomerization domain-containing protein 1 (Homo sapiens, UniProt Q9Y239); assay: blockers of NOD1 pathway activity – revised, SAR follow-up (AID 2333); type: functional
HEK293 [8] = assay: NOD2 signaling inhibitors in MDP-stimulated cells, cell-based, uHTS, luminescence (AID 2001); type: functional; details: Homo sapiens
[9] = target: T1, Corticotropin-releasing factor receptor 2/Corticotropin-releasing factor-binding protein; assay: Dose Response confirmation of uHTS hits for small molecule antagonists of the CRF-binding protein and CRF-R2 receptor complex.; type: functional; details: read-out: IC50_Mean
Cytochrome P450 2D6 = Cytochrome P450 2D6 (Homo sapiens, UniProt P10635);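 also: CYP2D6 member of a cytochrome P450 panel assay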
Candida albicans = assay: Candida growth inhibition combined with fluconazole – CaCi-2 strain, Alamar Blue, dry powder, set 3, dose response (AID 488907); type: functional, organism-based
CAAX prenyl protease 2 = target: T2, CAAX prenyl protease 2 (Homo sapiens, UniProt Q9Y256); assay: inhibition of Ras-converting CAAX protease Rce1 – biochemical, yeast membranes, quenched-peptide fluorescence, cherry-pick, dose response (AID 588849)
T2 sequence (Q9Y256 whole entry): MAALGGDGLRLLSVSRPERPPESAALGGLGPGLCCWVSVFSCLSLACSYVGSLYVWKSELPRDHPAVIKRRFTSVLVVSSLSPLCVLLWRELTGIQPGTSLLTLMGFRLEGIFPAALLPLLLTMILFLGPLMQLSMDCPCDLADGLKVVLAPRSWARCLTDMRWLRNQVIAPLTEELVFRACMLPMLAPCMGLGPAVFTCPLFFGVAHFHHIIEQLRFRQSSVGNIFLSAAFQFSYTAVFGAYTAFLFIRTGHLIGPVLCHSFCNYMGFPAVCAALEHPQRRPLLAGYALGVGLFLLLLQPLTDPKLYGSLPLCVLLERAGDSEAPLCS

CAAX prenyl protease 1 = CAAX prenyl protease 1 (Saccharomyces cerevisiae S288c, UniProt P47154); assay: yeast CAAX protease Ste24 inhibition – biochemical, S. cerevisiae, plate reader, cherry-pick, dose response (AID 488815)
Trypsin = Trypsin (Sus scrofa, UniProt P00761); assay: trypsin protease activity blockade – biochemical, quenched peptide fluorescence, cherry-pick, selectivity assay for Rce1 protease inhibitor project, dose response (AID 488789)
Sequence of Trypsin (P00761 whole entry): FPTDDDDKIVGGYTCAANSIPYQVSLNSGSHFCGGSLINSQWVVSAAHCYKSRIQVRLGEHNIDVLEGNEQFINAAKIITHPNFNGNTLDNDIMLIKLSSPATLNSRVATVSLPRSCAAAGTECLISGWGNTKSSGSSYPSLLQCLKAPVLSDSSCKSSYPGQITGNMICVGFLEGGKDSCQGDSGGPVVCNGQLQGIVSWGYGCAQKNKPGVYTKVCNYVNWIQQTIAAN

Sequence of Nucleotide-binding oligomerization domain-containing protein 1 (Q9Y239 whole entry, the tested form may be a part): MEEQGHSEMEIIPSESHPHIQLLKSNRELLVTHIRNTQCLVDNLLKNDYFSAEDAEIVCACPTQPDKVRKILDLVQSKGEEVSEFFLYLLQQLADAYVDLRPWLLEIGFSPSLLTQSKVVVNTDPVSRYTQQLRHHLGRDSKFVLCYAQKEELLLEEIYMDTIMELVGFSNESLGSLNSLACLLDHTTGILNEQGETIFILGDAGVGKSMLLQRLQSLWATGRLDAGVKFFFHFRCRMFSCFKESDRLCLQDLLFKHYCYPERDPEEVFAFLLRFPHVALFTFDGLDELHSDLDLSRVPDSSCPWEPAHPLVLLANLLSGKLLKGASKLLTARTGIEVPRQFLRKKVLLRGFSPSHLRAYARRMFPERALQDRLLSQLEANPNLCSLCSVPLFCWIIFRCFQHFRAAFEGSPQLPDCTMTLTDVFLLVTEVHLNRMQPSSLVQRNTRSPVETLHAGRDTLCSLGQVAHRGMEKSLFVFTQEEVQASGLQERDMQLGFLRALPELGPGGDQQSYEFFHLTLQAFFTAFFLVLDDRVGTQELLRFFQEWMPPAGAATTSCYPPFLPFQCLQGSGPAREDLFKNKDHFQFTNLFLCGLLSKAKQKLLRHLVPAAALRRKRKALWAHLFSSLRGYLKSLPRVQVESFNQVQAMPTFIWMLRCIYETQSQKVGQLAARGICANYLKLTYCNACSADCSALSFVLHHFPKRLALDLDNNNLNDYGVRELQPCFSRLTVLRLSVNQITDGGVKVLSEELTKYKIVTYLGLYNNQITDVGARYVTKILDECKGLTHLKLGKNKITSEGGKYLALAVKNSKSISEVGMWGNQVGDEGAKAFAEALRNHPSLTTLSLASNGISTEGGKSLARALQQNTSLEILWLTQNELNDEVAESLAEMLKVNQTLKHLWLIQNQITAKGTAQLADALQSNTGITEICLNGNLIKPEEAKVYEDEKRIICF
Sequence of CAAX prenyl protease 1 (P47154 whole entry): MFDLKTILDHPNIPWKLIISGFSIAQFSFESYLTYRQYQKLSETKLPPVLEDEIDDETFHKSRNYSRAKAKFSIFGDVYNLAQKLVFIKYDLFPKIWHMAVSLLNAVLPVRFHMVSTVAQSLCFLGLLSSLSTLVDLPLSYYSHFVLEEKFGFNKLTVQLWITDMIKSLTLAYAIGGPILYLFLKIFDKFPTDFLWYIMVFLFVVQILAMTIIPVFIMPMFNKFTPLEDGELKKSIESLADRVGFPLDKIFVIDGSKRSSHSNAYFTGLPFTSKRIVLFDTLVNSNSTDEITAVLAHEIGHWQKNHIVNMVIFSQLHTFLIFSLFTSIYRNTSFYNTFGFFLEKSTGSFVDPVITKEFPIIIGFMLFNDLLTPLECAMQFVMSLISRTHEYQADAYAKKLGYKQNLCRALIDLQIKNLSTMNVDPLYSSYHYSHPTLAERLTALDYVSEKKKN
Sequence of Cytochrome P450 2D6 (P10635 whole entry): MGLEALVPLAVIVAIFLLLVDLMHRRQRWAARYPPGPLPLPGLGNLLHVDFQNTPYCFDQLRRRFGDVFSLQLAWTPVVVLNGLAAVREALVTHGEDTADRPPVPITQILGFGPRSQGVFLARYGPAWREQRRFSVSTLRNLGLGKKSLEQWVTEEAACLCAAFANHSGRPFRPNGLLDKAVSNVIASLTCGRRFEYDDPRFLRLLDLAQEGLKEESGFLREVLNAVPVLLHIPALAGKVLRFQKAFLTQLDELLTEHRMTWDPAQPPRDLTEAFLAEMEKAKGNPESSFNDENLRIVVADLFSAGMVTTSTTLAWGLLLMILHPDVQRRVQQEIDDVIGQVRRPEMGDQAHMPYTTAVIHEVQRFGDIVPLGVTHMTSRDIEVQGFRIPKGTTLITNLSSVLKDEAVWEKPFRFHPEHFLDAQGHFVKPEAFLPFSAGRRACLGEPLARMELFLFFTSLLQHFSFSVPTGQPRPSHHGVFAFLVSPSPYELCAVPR

O=C(Nc1nc2c(F)cc(F)cc2s1)c1ccc([N+](=O)[O-])o1
IC50 (HEK293 [1]): > 20 µM (inactive) | IC50 [2]: > 20 µM (inactive) | EC50 (HEK293 [3]): 12 µM (active) | IC50 (HEK293 [4]): > 20 µM (inactive) | IC50 (HEK293 [5]): > 20 µM (inactive) | EC50 [6]: > 53 µM (inactive) | IC50 [7]: 7.18 µM (active) | IC50 (HEK293 [8]): 15.5 µM (inactive) | IC50 [9]: 4.95 µM (active)

CCCS(=O)(=O)N1CCCC(C(=O)NCCCOCC)C1 (centres undefined)
AC50 (Cytochrome P450 2D6): inconclusive

COCCC(=O)N1CCN(c2ccccn2)CC1
AC50 (Candida albicans): 5.95 µM (active)

COc1ccc(OC)c(/C=N/NC(=O)CSc2cc(C)nc3c(OC)cccc23)c1
AC50 (CAAX prenyl protease 2): 10.7 µM (active) | AC50 (CAAX prenyl protease 1): 6.88 µM (active) | AC50 (Trypsin): 34.3 µM (active)
